Paper PMC9030381, “The Discovery of Potent SHP2 Inhibitors with Anti-Proliferative Activity in Breast Cancer Cell Lines” (International Journal of Molecular Sciences, 2022)
pIC50: −log10 of the molar value.

What was measured:
[1] = test system: MCF-7; assay: Cell viability assay (CellTiter 96 AQueous One); format: cell-based; details: at 20 μM, 48 h
Procedure: (§1) The percentage of viable cells was determined using The CellTiter 96® AQueous One Solution Cell Proliferation Assay (Promega–Cat G3580, Madison, WI, USA). Briefly, 5 × 10^3 cells/well of MCF-7 or MDA-MB-231 were plated in a 96 well culture plate in a total volume of 100 µL/well. The next day, cells were treated with 0.16, 0.8, 4, and 20 µM of NSC 13030, 24198, 57774, 137420, or DMSO as control. After 48 h, 20 µL of CellTiter 96 AQuoeus one solution reagent was added in each well, and incubated for 4 h in a CO2 incubator at 37 °C. The percentage of living cells was calculated by dividing the OD (490 nm) of treated cells by the same concentration of DMSO controls. All conditions were done in triplicates.

[2] = target: SHP1 (Homo sapiens, UniProt P29350); assay: Enzymatic SHP1 inhibition assay (selectivity); format: biochemical; details: read-out: SHP1 Obtained IC50
[3] = target: T1, SHP2 (Homo sapiens, UniProt Q06124); assay: Enzymatic SHP2 inhibition assay (pNPP phosphatase activity); format: biochemical; details: for inhibition at 100 µM: read-out: inhibition of SHP2 enzyme; for pIC50: pNPP substrate, read-out: SHP2 Obtained IC50
T1 construct: purchased BPS Bioscience, Inc., San Diego, CA, USA
T1 sequence (Q06124 1-593): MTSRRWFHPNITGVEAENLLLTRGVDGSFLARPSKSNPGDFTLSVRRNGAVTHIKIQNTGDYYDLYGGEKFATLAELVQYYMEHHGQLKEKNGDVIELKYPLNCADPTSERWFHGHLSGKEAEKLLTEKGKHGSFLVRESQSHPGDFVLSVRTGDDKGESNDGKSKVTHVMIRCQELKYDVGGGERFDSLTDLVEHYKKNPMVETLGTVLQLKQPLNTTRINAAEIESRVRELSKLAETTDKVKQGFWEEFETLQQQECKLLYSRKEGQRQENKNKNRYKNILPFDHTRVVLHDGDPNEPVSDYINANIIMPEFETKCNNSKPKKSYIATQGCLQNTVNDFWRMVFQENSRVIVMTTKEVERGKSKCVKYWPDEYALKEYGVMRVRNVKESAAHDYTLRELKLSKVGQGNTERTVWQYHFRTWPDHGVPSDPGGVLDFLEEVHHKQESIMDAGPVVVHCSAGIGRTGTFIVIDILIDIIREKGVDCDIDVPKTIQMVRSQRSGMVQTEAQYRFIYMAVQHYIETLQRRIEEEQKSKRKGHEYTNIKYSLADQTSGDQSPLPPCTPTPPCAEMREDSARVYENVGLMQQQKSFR
Procedure: Phosphatase Activity Assay (PTP) using p-nitrophenyl phosphate (pNPP) as a substrate was carried out in a total volume of 100 µL. This was done by monitoring the increase in phosphatase absorbance at 405 nm in the presence of the substrate using 96-well microplate reader (Thermo Scientific Multiskan GO, Waltham, MA, USA). The standard reaction mixture consisted of PTP buffer (100 mM NaCl, 2 mM EDTA, 50 mM HEPES, 3 mM DTT, pH 7.4), 100 nM of Shp2 (BPS Bioscience, Inc., San Diego, CA, USA), and 1 mM of pNPP incubated for 90 min at 30 °C. The enzymatic reaction was stopped by the addition of 50 µL of 5 M NaOH. For inhibition reaction, SHP2 enzyme was preincubated with 100 µM compound or their vehicle (DMSO) for 5 min at 37 °C, prior to the incubation with pNPP substrate for 90 min at 30 °C. The same method was used to calculate IC50 values using GraphPad Prism software 8.0 (San Diego, CA, USA). Wells with SHP2 substrate and without compounds were considered controls (enzyme activity is 100%).

[4] = test system: MCF-7; assay: Cell proliferative assay (DAPI cell count); format: cell-based; details: at 20 μM, 48 h, in comparison with the vehicle
Procedure: (§2) The 5 × 10^3 cells/well of MCF-7 or MDA-MB-231cell-lines were seeded in 96 well plates. The next day, cells were treated with 0.16, 0.8, 4, and 20 µM of NSC 13030, 24198, 57774, 137420, or DMSO (Sigma-Aldrich–Cat D9170, St. Louis, MO, USA) as control. After 48 h of incubation, cells were stained with DAPI (Thermo Fischer–Cat R37606, Waltham, MA, USA) and images of the entire wells were taken with a 20× objective and a DAPI filter cube using Lionheart FX automated microscope. The image analysis and cell counts were done using Gen5 software. All conditions were done in triplicates.

[5] = test system: MDA-MB-231; assay: Cell viability assay (CellTiter 96 AQueous One); format: cell-based; details: at 20 μM, 48 h
Procedure: as §1

[6] = test system: MDA-MB-231; assay: Cell proliferative assay (DAPI cell count); format: cell-based; details: at 20 μM, 48 h, in comparison with the vehicle
Procedure: as §2

Chain of SHP1 (P29350 whole entry): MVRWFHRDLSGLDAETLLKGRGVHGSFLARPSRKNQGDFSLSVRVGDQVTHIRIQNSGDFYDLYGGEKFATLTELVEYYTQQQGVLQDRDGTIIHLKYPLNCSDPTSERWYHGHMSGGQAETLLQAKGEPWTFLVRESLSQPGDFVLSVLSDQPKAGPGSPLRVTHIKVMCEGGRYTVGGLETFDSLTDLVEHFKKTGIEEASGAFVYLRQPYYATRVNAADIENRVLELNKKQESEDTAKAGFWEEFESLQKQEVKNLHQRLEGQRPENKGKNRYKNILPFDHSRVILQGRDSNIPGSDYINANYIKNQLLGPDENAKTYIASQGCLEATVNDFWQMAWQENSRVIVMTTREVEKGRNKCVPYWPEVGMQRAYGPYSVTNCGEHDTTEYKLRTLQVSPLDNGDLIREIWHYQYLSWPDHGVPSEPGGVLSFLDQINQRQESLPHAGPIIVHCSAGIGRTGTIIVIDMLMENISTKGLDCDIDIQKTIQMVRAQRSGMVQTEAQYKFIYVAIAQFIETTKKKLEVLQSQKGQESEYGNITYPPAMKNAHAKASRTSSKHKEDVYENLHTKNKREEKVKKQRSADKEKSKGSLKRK

SMILES	reduction of MCF-7 viability [1] [%]	pIC50 [2]	inhibition at 100 µM ([3]; at 100 μM compound) [%]	pIC50 [3]	reduction of MCF-7 proliferation [4] [%]	reduction of MDA-MB-231 viability [5] [%]	selectivity, inhibition activity towards SHP2 over SHP1 ([3]; SHP2 over SHP1) [fold]	inhibition of SHP2 enzyme ([3]; at 100 μM compound, 100 µM)	reduction of MDA-MB-231 proliferation [6] [%]
O=C(O)CSC(Nc1ccccc1C(=O)O)c1ccccc1 (centres unmarked) [Compound 24198]	65.2	4.84	99	5.72	34.7	–	–	–	–
COc1ccc2nc3cc(Cl)ccc3c(SC(CC(=O)O)C(=O)O)c2c1 (centres unmarked) [Compound 13030]	64.4	4.07	98	5.49	42.1	–	–	–	–
Cc1ccc(C(=O)Nc2ccc(S(=O)(=O)O)c3cc(S(=O)(=O)O)cc(S(=O)(=O)O)c23)cc1NC(=O)c1cccc(NC(=O)Nc2cccc(C(=O)Nc3cc(C(=O)Nc4ccc(S(=O)(=O)O)c5cc(S(=O)(=O)O)cc(S(=O)(=O)O)c45)ccc3C)c2)c1 [Suramin, reference compound]	–	4.81	79	5.35	–	–	–	–	–
Cc1c2oc3c(C)ccc(C(=O)O)c3nc-2c(C(=O)O)c(N)c1=O [Compound 57774]	65.8	3.78	–	6.10	74.5	36.2	200	complete SHP2 inhibition	64
O=C(c1ccccc1)c1ccc2c(Cl)ccc(C(=O)O)c2c1C(=O)O [Compound 137420]	–	–	71	4.48	–	–	–	–	–
